What all share (assay): Test F preemergence
The subject of one assay is kochia. It is filed as in vivo, Kochia scoparia. The text has this:
(§1) Seeds of plant species selected from corn (Zea mays), soybean (Glycine max), velvetleaf (Abutilon theophrasti), lambsquarters (Chenopodium album), wild poinsettia (Euphorbia heterophylla), pigweed, palmer (palmer pigweed, Amaranthus palmeri), common waterhemp (Amaranthus rudis), surinam grass (Brachiaria decumbens), large crabgrass (Digitaria sanguinalis), crabgrass, Brazil (Brazilian crabgrass, Digitaria horizontalis), fall panicum (Panicum dichotomiflorum), giant foxtail (Setaria faberii), green foxtail (Setaria viridis), goosegrass (Eleusine indica), johnsongrass (Sorghum halepense), common ragweed (Ambrosia elation), barnyardgrass (Echinochloa crus-galli), southern sandbur (Cenchrus echinatus), arrowleaf sida (Sida rhombifolia), Italian ryegrass (Lolium multiflorum), dayflower, VA (Virginia (VA) dayflower, Commelina virginica), field bindweed (Convolvulus arvensis), cocklebur (common cocklebur, Xanthium strumarium), morningglory (Ipomoea coccinea), nightshade (eastern black nightshade, Solanum ptycanthum), kochia (Kochia scoparia), yellow nutsedge (Cyperus esculentus), and hairy beggarticks (Bidens pilosa), were planted into a silt loam soil and treated preemergence with test chemicals formulated in a non-phytotoxic solvent mixture which included a surfactant.
(§2) At the same time, plants from these crop and weed species and also horseweed (Canada horseweed, Conyza canadensis), smartweed (ladysthumb smartweed, Polygonum persicaria), waterhemp_RES1, (ALS & Triazine resistant common waterhemp, Amaranthus rudis), and waterhemp_RES2, (ALS & HPPD resistant common waterhemp, Amaranthus rudis) were treated with postemergence applications of test chemicals formulated in the same manner. Plants ranged in height from 2 to 18 cm for postemergence treatments (1- to 4-leaf stage). Treated plants and controls were maintained in a greenhouse for 14 to 21 days, after which time all species were compared to controls and visually evaluated. Plant response ratings, summarized in Table F, are based on a scale of 0 to 100 where 0 is no effect and 100 is complete control. A dash (-) response means no test result.

In a further assay the test system is giant foxtail. It is filed as in vivo, Setaria faberii.
Description: as §1, §2

Another assay concerns southern sandbur. It is filed as in vivo, Cenchrus echinatus.
Description: as §1, §2

The subject of another assay is lambsquarters. It is filed as in vivo, Chenopodium album.
Description: as §1, §2

Where [1] appears, read: Preemergence, 31 g ai/ha, scale 0 to 100.
Setting [2] is: Preemergence, 62 g ai/ha, scale 0 to 100.
[3] abbreviates: Preemergence, 125 g ai/ha, scale 0 to 100.
[4] abbreviates: preemergence, 8 g ai/ha, scale 0 to 100, 100 is complete control.
Where [5] appears, read: preemergence, 16 g ai/ha, scale 0 to 100, 100 is complete control.
[6] abbreviates: Preemergence, 250 g ai/ha, scale 0 to 100.

These results are taken from patent US20150105252A1, “SUBSTITUTED PYRAZOLES AS HERBICIDES” (E I DU PONT DE NEMOURS AND COMPANY, priority 2013, published 2015).

On to `CCOc1cc(C(=O)NCC(F)(F)F)nn1Cc1ccnc(C(F)(F)F)c1` [Compound 104], for which the “Plant response rating, Kochia” value stood at 25 in the assay with kochia (setting [1]), 100 in the assay on kochia (setting [2]), 100 with kochia (setting [3]) and 0 with kochia (setting [4]). The “Plant response rating, Giant Foxtail” value worked out at 100 in the assay on giant foxtail (setting [1]); 100 in the assay with giant foxtail (setting [2]); 100 in the assay on giant foxtail (setting [3]); 25 in the assay on giant foxtail (setting [4]); 30 in the assay with giant foxtail (setting [5]). Further, the “Plant response rating, Southern Sandbur” value worked out at 20 in the assay on southern sandbur (setting [1]); 80 in the assay with southern sandbur (setting [2]); 90 in the assay on southern sandbur (setting [3]); 0 in the assay on southern sandbur (setting [4]); 0 with southern sandbur (setting [5]). Moreover, the “Plant response rating, Lambsquarters” value in the assay on lambsquarters (setting [1]) was determined as 100; in the assay with lambsquarters (setting [2]), 100; with lambsquarters (setting [3]), 100; in the assay on lambsquarters (setting [4]) it was 35; in the assay with lambsquarters (setting [5]), 60.
Take `CCNC(=O)c1cc(CCCl)n(Cc2ccnc(C(F)(F)F)c2)n1` [Compound 179]: the “Plant response rating, Kochia” value was found to be 30 with kochia (setting [1]), 35 with kochia (setting [2]), 90 in the assay on kochia (setting [3]) and 0 with kochia (setting [4]). The “Plant response rating, Giant Foxtail” value in the assay with giant foxtail (setting [1]) came to 25; in the assay with giant foxtail (setting [2]), 40; in the assay with giant foxtail (setting [3]) it was 98; in the assay with giant foxtail (setting [4]), 0. In addition, the “Plant response rating, Southern Sandbur” value in the assay with southern sandbur (setting [1]) came to 0; in the assay with southern sandbur (setting [2]), 0; with southern sandbur (setting [3]), 35; with southern sandbur (setting [4]) it was 0. Also, the “Plant response rating, Lambsquarters” value in the assay with lambsquarters (setting [2]) is given as 30; with lambsquarters (setting [3]), 100.
For `CCNC(=O)c1cc(CC)n(Cc2ccnc(C(F)(F)F)c2)n1` [Compound 196], the “Plant response rating, Kochia” value in the assay with kochia (setting [2]) was 85; in the assay with kochia (setting [3]), 100; with kochia (setting [4]), 15; in the assay on kochia (setting [5]), 40. Also, the “Plant response rating, Giant Foxtail” value with giant foxtail (setting [2]) amounted to 70; in the assay with giant foxtail (setting [3]), 100; in the assay on giant foxtail (setting [4]), 0; in the assay on giant foxtail (setting [5]), 0. The “Plant response rating, Southern Sandbur” value came out at 10 in the assay with southern sandbur (setting [2]), 40 in the assay with southern sandbur (setting [3]), 0 with southern sandbur (setting [4]) and 0 with southern sandbur (setting [5]). Also, the “Plant response rating, Lambsquarters” value with lambsquarters (setting [2]) is recorded as 98; in the assay on lambsquarters (setting [3]), 100; in the assay on lambsquarters (setting [4]), 0; with lambsquarters (setting [5]), 5.
Turning to `Cc1cc(C(=O)NC(C)C)nn1Cc1ccnc(C(F)(F)F)c1` [Compound 197], the “Plant response rating, Kochia” value in the assay on kochia (setting [2]) is 75; in the assay with kochia (setting [3]) it was 98; with kochia (setting [4]), 0; in the assay on kochia (setting [5]), 0. Moreover, the “Plant response rating, Giant Foxtail” value was found to be 20 in the assay with giant foxtail (setting [2]), 100 in the assay with giant foxtail (setting [3]), 0 with giant foxtail (setting [4]) and 0 with giant foxtail (setting [5]). For the same compound, the “Plant response rating, Southern Sandbur” value came to 0 with southern sandbur (setting [2]), 15 with southern sandbur (setting [3]), 0 in the assay with southern sandbur (setting [4]) and 0 with southern sandbur (setting [5]). Moreover, the “Plant response rating, Lambsquarters” value with lambsquarters (setting [2]) worked out at 35; in the assay on lambsquarters (setting [3]), 80; with lambsquarters (setting [4]), 0; with lambsquarters (setting [5]), 35.
For the compound `CCc1cc(C(=O)NC2CC2)nn1Cc1ccnc(OCC(F)(F)F)c1` [Compound 200], the “Plant response rating, Kochia” value in the assay on kochia (setting [6]) is listed as 100; in the assay with kochia (setting [2]) it was 70; in the assay with kochia (setting [3]), 90; in the assay with kochia (setting [5]), 20. In addition, the “Plant response rating, Giant Foxtail” value in the assay with giant foxtail (setting [6]) is reported as 40; in the assay on giant foxtail (setting [2]), 0; in the assay with giant foxtail (setting [3]), 5; in the assay on giant foxtail (setting [5]) it was 0. The “Plant response rating, Southern Sandbur” value with southern sandbur (setting [6]) was found to be 60; in the assay on southern sandbur (setting [2]), 0; in the assay on southern sandbur (setting [3]), 15; with southern sandbur (setting [5]), 0. For the same compound, the “Plant response rating, Lambsquarters” value in the assay on lambsquarters (setting [6]) came to 98; in the assay on lambsquarters (setting [2]) it was 65; with lambsquarters (setting [3]), 70; in the assay with lambsquarters (setting [5]), 0.
